In brackets after ≈: the same amount, converted by molar mass.

These results are taken from publication PMC11823609, “Advancements in the fight against globally distributed OXA-48 carbapenemase: evaluating the new generation of carbapenemase inhibitors” (Antimicrobial Agents and Chemotherapy, 2025).

Holding throughout (assay): microbe, parasite or virus in culture
The test system of one experiment is E. coli TG1 (OXA-48). In kind it is cell-based, Escherichia coli. To be noted: Escherichia coli. In short, it runs like this: (§1)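 Triplicate MICs; EUCAST 13.0 breakpoints. Isogenic E. coli TG1 and porin-deficient HB4 expressing OXA-48 ± CTX-M-14. Compounds also tested individually.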
The subject of experiment [1] is E. coli HB4 ΔompC/F (CTX-M-14 + OXA-48). The format is cell-based, Escherichia coli. To be noted: for MIC: Escherichia coli. In short, it runs like this:
as §1

In the next experiment the test system is E. coli HB4 ΔompC/F. The format is cell-based, Escherichia coli. Conditions: Escherichia coli. In short, it runs like this: as §1
The test system of experiment [2] is E. coli HB4 ΔompC/F (OXA-48). The format is cell-based, Escherichia coli. Conditions: Escherichia coli. In short, it runs like this: as §1
The subject of experiment [3] is E. coli strain 224 (MLST 127, No ESBL). In kind it is cell-based. Conditions: Escherichia coli; E. coli 224; β-lactamase inhibitor alone; read-out: MIC. In short, it runs like this:
(§2)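 MICs in triplicate against OXA-48-positive Enterobacterales clinical isolates, interpreted by EUCAST 13.0 breakpoints. Inhibitors at 4 mg/L combined with ertapenem or ceftazidime as reporter substrates; MICs of each compound alone also determined.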

For experiment [4], the system named is K. pneumoniae strain 194 (MLST 392, No ESBL). The format is cell-based. To be noted: Klebsiella pneumoniae; K. pneumoniae 194; β-lactamase inhibitor alone; read-out: MIC. In short, it runs like this:
as §2

For experiment [5], the system named is K. pneumoniae strain 125 (MLST 307, ESBL). The format is cell-based. To be noted: Klebsiella pneumoniae. In short, it runs like this: as §2
The subject of experiment [6] is E. cloacae strain 281 (MLST 78, No ESBL). The format is cell-based. Conditions: Enterobacter cloacae; E. cloacae 281; β-lactamase inhibitor alone; read-out: MIC. In outline:
as §2

For experiment [7], the system named is K. pneumoniae strain 238 (MLST 15, ESBL). In kind it is cell-based. To be noted: Klebsiella pneumoniae. In short, it runs like this:
as §2

Experiment [8] concerns K. pneumoniae strain 497 (MLST 11, No ESBL). The format is cell-based. To be noted: Klebsiella pneumoniae; K. pneumoniae 497; β-lactamase inhibitor alone; read-out: MIC.
Experiment [9] concerns K. pneumoniae strain 170 (MLST 307, No ESBL). In kind it is cell-based. Conditions: Klebsiella pneumoniae; K. pneumoniae 170; β-lactamase inhibitor alone; read-out: MIC. In short, it runs like this:
as §2

The subject of experiment [10] is E. cloacae strain 231 (MLST 171, No ESBL). In kind it is cell-based. To be noted: Enterobacter cloacae; E. cloacae 231; β-lactamase inhibitor alone; read-out: MIC. In short, it runs like this: as §2
The subject of experiment [11] is E. cloacae strain 272 (MLST 78, ESBL). In kind it is cell-based. Conditions: Enterobacter cloacae. In outline: as §2
For experiment [12], the system named is K. pneumoniae strain 19 (MLST 11, ESBL). In kind it is cell-based. To be noted: Klebsiella pneumoniae. In short, it runs like this: as §2
Experiment [13] relates to K. pneumoniae strain 71 (MLST 15, No ESBL). The format is cell-based. To be noted: Klebsiella pneumoniae; K. pneumoniae 71; β-lactamase inhibitor alone; read-out: MIC. In outline:
as §2

In experiment [14] the test system is E. coli strain 103 (MLST 10, ESBL). The format is cell-based. To be noted: Escherichia coli. In outline:
as §2

Experiment [15] concerns K. pneumoniae strain 413 (MLST 147, ESBL). In kind it is cell-based. To be noted: Klebsiella pneumoniae. In short, it runs like this:
as §2

For experiment [16], the system named is E. coli strain 264 (MLST 131, No ESBL). The format is cell-based. Conditions: Escherichia coli; E. coli 264; β-lactamase inhibitor alone; read-out: MIC. In short, it runs like this: as §2
Experiment [17] concerns E. coli strain 177 (MLST 131, ESBL). In kind it is cell-based. Conditions: Escherichia coli. In short, it runs like this:
as §2

For experiment [18], the system named is K. pneumoniae strain 237 (MLST 147, No ESBL). The format is cell-based. To be noted: Klebsiella pneumoniae; K. pneumoniae 237; β-lactamase inhibitor alone; read-out: MIC. In short, it runs like this:
as §2

Experiment [19] concerns E. cloacae strain 235 (MLST 171, ESBL). In kind it is cell-based. To be noted: Enterobacter cloacae. In outline:
as §2

The test system of experiment [20] is K. pneumoniae strain 23 (MLST 392, ESBL). The format is cell-based. To be noted: Klebsiella pneumoniae. In outline:
as §2

In the case of `O=C(O)C[C@@H]1CC[C@H](NC(=O)Cc2cccs2)B(O)O1` [Vaborbactam, vaborbactam], the MIC (with E. coli TG1 (OXA-48); in experiment [1]; in the experiment on E. coli HB4 ΔompC/F; in experiment [2]; in [3]; in experiment [4]) was not below 128 µg/mL each time. Moreover, the MIC in [5], in experiment [6], in experiment [7], in experiment [8], in experiment [9] and in experiment [10] was not below 128 µg/mL in each case. Besides, the MIC in [11], in experiment [12], in experiment [13], in [14], in experiment [15] and in experiment [16] was not below 128 µg/mL throughout. In addition, the MIC in [17], in [18], in [19] and in [20] was not below 128 µg/mL each time.

As for `O=C(O)c1c(F)ccc2c1OB(O)[C@@H]1C[C@H]21` [Xeruborbactam, xeruborbactam], the MIC against E. coli TG1 (OXA-48) came out at 32 µg/mL (≈ 144 µM); in experiment [1] it was 16 µg/mL (≈ 72.1 µM); with E. coli HB4 ΔompC/F it was 16 µg/mL (≈ 72.1 µM); in [2], 16 µg/mL (≈ 72.1 µM); in experiment [3], 32 µg/mL; in [4], 32 µg/mL. For the same compound, the MIC turned out to be 32 µg/mL in experiment [5]; 32 µg/mL in experiment [6]; 64 µg/mL in [7]; 64 µg/mL in [8]; 32 µg/mL in experiment [9]; 32 µg/mL in experiment [10]. For the same compound, the MIC in [11] was 32 µg/mL; in experiment [12], 32 µg/mL; in experiment [13], 32 µg/mL; in [14], 64 µg/mL; in [15], 64 µg/mL; in experiment [16], 32 µg/mL. The MIC was 64 µg/mL in [17], 64 µg/mL in experiment [18], not below 128 µg/mL in experiment [19] and 32 µg/mL in experiment [20]. For the same compound, in experiment [1] (E. coli HB4 coproducing CTX-M-14 and OXA-48, BLI 4 mg/L), the “decrease of ertapenem MIC with BLI” value worked out at 256 fold.
